In brackets after ≈: the same amount, converted by molar mass.
Tests used:
Format in all cases: functional
[1] = test system: Candida albicans; experiment: Antifungal activity against fluconazole-resistant Candida albicans 17# assessed as inhibition of microbial growth after 24 hrs by broth microdilution method
[2] = test system: Candida albicans; experiment: Antifungal activity against Candida albicans ATCC SC5314 measured after 24 hrs by broth microdilution assay
[3] = test system: Nakaseomyces glabratus; experiment: Antifungal activity against Candida glabrata measured after 24 hrs by broth microdilution assay
[4] = test system: Candida albicans; experiment: Antifungal activity against fluconazole-resistant Candida albicans 632 assessed as inhibition of microbial growth after 24 hrs by broth microdilution method
[5] = test system: Candida albicans; experiment: Antifungal activity against fluconazole-resistant Candida albicans 904 assessed as inhibition of microbial growth after 24 hrs by broth microdilution method
[6] = test system: Pichia kudriavzevii; experiment: Antifungal activity against Candida krusei AS2.1045 measured after 24 hrs by broth microdilution assay
[7] = test system: Aspergillus fumigatus; experiment: Antifungal activity against Aspergillus fumigatus CMGCC3.7795 measured after 72 hrs by broth microdilution assay
[8] = test system: Candida parapsilosis; experiment: Antifungal activity against Candida parapsilosis ATCC 22019 measured after 24 hrs by broth microdilution assay; conditions: Lodderomyces parapsilosis
[9] = test system: Candida albicans; experiment: Antifungal activity against Candida albicans CPCC400616 measured after 24 hrs by broth microdilution assay
[10] = test system: Candida albicans; experiment: Antifungal activity against fluconazole-resistant Candida albicans 901 assessed as inhibition of microbial growth after 24 hrs by broth microdilution method
[11] = test system: Candida albicans; experiment: Antifungal activity against fluconazole-resistant Candida albicans CaR assessed as inhibition of microbial growth after 24 hrs by broth microdilution method
[12] = test system: [Candida] zeylanoides; experiment: Antifungal activity against Candida zeylanoides CMGCC2.3739 measured after 24 hrs by broth microdilution assay; conditions: Dujonia zeylanoides
[13] = test system: Cryptococcus neoformans; experiment: Antifungal activity against Cryptococcus neoformans CMGCC2.3161 measured after 72 hrs by broth microdilution assay
[14] = test system: Candida albicans; experiment: Potency index, ratio of fluconazole MIC to test compound MIC for Candida albicans CPCC400616 measured after 24 hrs by broth microdilution assay

SMILES | MIC [1] [µg/mL] | MIC [2] [µg/mL] | MIC [3] [µg/mL] | MIC [4] [µg/mL] | MIC [5] [µg/mL] | MIC [6] [µg/mL] | MIC [7] [µg/mL] | MIC [8] [µg/mL] | MIC [9] [µg/mL] | MIC [10] [µg/mL] | MIC [11] [µg/mL] | MIC [12] [µg/mL] | MIC [13] [µg/mL] | Ratio [14]
Fc1ccc(C[Se]C(Cn2cncn2)c2ccc(Cl)cc2Cl)cc1 (configuration not stated) | > 128 | 0.13 (≈ 0.303 µM) | 4 (≈ 9.32 µM) | > 128 | > 128 | 128 (≈ 298 µM) | 16 (≈ 37.3 µM) | 64 (≈ 149 µM) | 2 (≈ 4.66 µM) | > 128 | > 128 | 64 (≈ 149 µM) | 8 (≈ 18.6 µM) | –
Fc1ccc([Se]C(Cn2ccnc2)c2ccc(Cl)cc2Cl)cc1 (configuration not stated) | 2 | 0.03 (≈ 0.0724 µM) | 0.5 (≈ 1.21 µM) | 1 | 1 | 0.02 (≈ 0.0483 µM) | 8 (≈ 19.3 µM) | 0.25 (≈ 0.604 µM) | 0.25 (≈ 0.604 µM) | 1 | 8 | 0.25 (≈ 0.604 µM) | 0.03 (≈ 0.0724 µM) | 8
Cc1ccc([Se]C(Cn2ccnc2)c2ccc(F)cc2F)cc1 (configuration not stated) | 16 | 0.03 (≈ 0.0795 µM) | 0.5 (≈ 1.33 µM) | 1 | 4 | 0.13 (≈ 0.345 µM) | 8 (≈ 21.2 µM) | 0.25 (≈ 0.663 µM) | 0.5 (≈ 1.33 µM) | 8 | 2 | 0.5 (≈ 1.33 µM) | 0.13 (≈ 0.345 µM) | 8
CCc1ccc([Se]C(Cn2ccnc2)c2ccc(F)cc2F)cc1 (configuration not stated) | 4 | 0.13 (≈ 0.332 µM) | 0.5 (≈ 1.28 µM) | 1 | 8 | 0.13 (≈ 0.332 µM) | 8 (≈ 20.4 µM) | 0.13 (≈ 0.332 µM) | 0.13 (≈ 0.332 µM) | 2 | 1 | 0.5 (≈ 1.28 µM) | 0.03 (≈ 0.0767 µM) | 8
COc1ccccc1[Se]C(Cn1ccnc1)c1ccc(F)cc1F (configuration not stated) | 8 | 0.02 (≈ 0.0509 µM) | 0.25 (≈ 0.636 µM) | 16 | 8 | 0.5 (≈ 1.27 µM) | 8 (≈ 20.3 µM) | 0.13 (≈ 0.331 µM) | 1 (≈ 2.54 µM) | 4 | 8 | 0.13 (≈ 0.331 µM) | 1 (≈ 2.54 µM) | 8
CCc1ccccc1[Se]C(Cn1ccnc1)c1ccc(Cl)cc1Cl (configuration not stated) | 4 | 0.03 (≈ 0.0707 µM) | 0.13 (≈ 0.306 µM) | 16 | 1 | 0.5 (≈ 1.18 µM) | 8 (≈ 18.9 µM) | 0.13 (≈ 0.306 µM) | 0.25 (≈ 0.589 µM) | 4 | 2 | 0.5 (≈ 1.18 µM) | 0.5 (≈ 1.18 µM) | 8
COc1ccc(C[Se]C(Cn2cncn2)c2ccc(Cl)cc2Cl)cc1 (configuration not stated) | 32 | 1 (≈ 2.27 µM) | 4 (≈ 9.07 µM) | > 128 | 128 | 64 (≈ 145 µM) | 4 (≈ 9.07 µM) | 32 (≈ 72.5 µM) | 16 (≈ 36.3 µM) | 128 | 128 | 32 (≈ 72.5 µM) | 16 (≈ 36.3 µM) | –
COc1ccc([Se]C(Cn2ccnc2)c2ccc(Cl)cc2Cl)cc1 (configuration not stated) | 2 | 0.03 (≈ 0.0704 µM) | 0.25 (≈ 0.587 µM) | 2 | 8 | 0.02 (≈ 0.0469 µM) | 16 (≈ 37.5 µM) | 0.25 (≈ 0.587 µM) | 0.13 (≈ 0.305 µM) | 8 | 8 | 0.5 (≈ 1.17 µM) | 0.25 (≈ 0.587 µM) | 8
Cc1ccc(C[Se]C(Cn2cncn2)c2ccc(F)cc2F)cc1 (configuration not stated) | 64 | 2 (≈ 5.1 µM) | 2 (≈ 5.1 µM) | > 128 | > 128 | 128 (≈ 326 µM) | 8 (≈ 20.4 µM) | 128 (≈ 326 µM) | 2 (≈ 5.1 µM) | > 128 | > 128 | 32 (≈ 81.6 µM) | 4 (≈ 10.2 µM) | –
Clc1ccc(C[Se]C(Cn2cncn2)c2ccc(Cl)cc2Cl)cc1 (configuration not stated) | > 128 | 2 (≈ 4.49 µM) | 2 (≈ 4.49 µM) | > 128 | > 128 | 128 (≈ 287 µM) | 16 (≈ 35.9 µM) | 64 (≈ 144 µM) | 16 (≈ 35.9 µM) | > 128 | > 128 | 128 (≈ 287 µM) | 16 (≈ 35.9 µM) | –
Fc1ccc(C(Cn2cncn2)[Se]Cc2ccc(Cl)cc2)c(F)c1 (configuration not stated) | 16 | 0.13 (≈ 0.315 µM) | 0.5 (≈ 1.21 µM) | > 128 | 8 | 128 (≈ 310 µM) | 8 (≈ 19.4 µM) | 64 (≈ 155 µM) | 0.13 (≈ 0.315 µM) | 4 | 128 | 4 (≈ 9.69 µM) | 4 (≈ 9.69 µM) | –
Fc1ccc(C(Cn2cncn2)[Se]Cc2ccccc2Cl)c(F)c1 (configuration not stated) | 4 | 0.13 (≈ 0.315 µM) | 2 (≈ 4.85 µM) | 8 | 2 | 2 (≈ 4.85 µM) | 8 (≈ 19.4 µM) | 0.5 (≈ 1.21 µM) | 0.03 (≈ 0.0727 µM) | 4 | 32 | 1 (≈ 2.42 µM) | 2 (≈ 4.85 µM) | –
Cc1cccc([Se]C(Cn2ccnc2)c2ccc(F)cc2F)c1 (configuration not stated) | 8 | 0.03 (≈ 0.0795 µM) | 1 (≈ 2.65 µM) | 0.5 | 1 | 0.06 (≈ 0.159 µM) | 8 (≈ 21.2 µM) | 0.25 (≈ 0.663 µM) | 0.25 (≈ 0.663 µM) | 4 | 4 | 0.5 (≈ 1.33 µM) | 0.25 (≈ 0.663 µM) | 8
Cc1cc(C)cc([Se]C(Cn2ccnc2)c2ccc(F)cc2F)c1 (configuration not stated) | 4 | 0.03 (≈ 0.0767 µM) | 0.5 (≈ 1.28 µM) | 8 | 8 | 0.13 (≈ 0.332 µM) | 8 (≈ 20.4 µM) | 0.13 (≈ 0.332 µM) | 0.13 (≈ 0.332 µM) | 4 | 2 | 0.5 (≈ 1.28 µM) | 0.5 (≈ 1.28 µM) | 8
COc1cccc([Se]C(Cn2ccnc2)c2ccc(Cl)cc2Cl)c1 (configuration not stated) | 2 | 0.03 (≈ 0.0704 µM) | 0.5 (≈ 1.17 µM) | 16 | 4 | 0.06 (≈ 0.141 µM) | 8 (≈ 18.8 µM) | 0.5 (≈ 1.17 µM) | 0.25 (≈ 0.587 µM) | 16 | 8 | 0.5 (≈ 1.17 µM) | 0.25 (≈ 0.587 µM) | 8
Fc1ccc(C(Cn2ccnc2)[Se]c2ccccc2)c(F)c1 (configuration not stated) | 4 | 0.02 (≈ 0.0551 µM) | 1 (≈ 2.75 µM) | 2 | 1 | 0.25 (≈ 0.688 µM) | 2 (≈ 5.51 µM) | 0.06 (≈ 0.165 µM) | 0.5 (≈ 1.38 µM) | 2 | 1 | 0.25 (≈ 0.688 µM) | 0.5 (≈ 1.38 µM) | 8
COc1ccc(C[Se]C(Cn2cncn2)c2ccc(F)cc2F)cc1 (configuration not stated) | 64 | 2 (≈ 4.9 µM) | 2 (≈ 4.9 µM) | > 128 | > 128 | 32 (≈ 78.4 µM) | 4 (≈ 9.8 µM) | > 128 | 1 (≈ 2.45 µM) | > 128 | 128 | 32 (≈ 78.4 µM) | 32 (≈ 78.4 µM) | –
Clc1ccc(C[Se]C(Cn2cncn2)c2ccc(Cl)cc2Cl)c(Cl)c1 (configuration not stated) | > 128 | 0.25 (≈ 0.521 µM) | 0.5 (≈ 1.04 µM) | > 128 | > 128 | 128 (≈ 267 µM) | 16 (≈ 33.3 µM) | 64 (≈ 133 µM) | 0.25 (≈ 0.521 µM) | > 128 | > 128 | 128 (≈ 267 µM) | 64 (≈ 133 µM) | –
Clc1ccc(C(Cn2cncn2)[Se]Cc2ccccc2)c(Cl)c1 (configuration not stated) | 64 | 0.13 (≈ 0.316 µM) | 4 (≈ 9.73 µM) | > 128 | > 128 | 128 (≈ 311 µM) | 16 (≈ 38.9 µM) | 32 (≈ 77.8 µM) | 0.13 (≈ 0.316 µM) | > 128 | > 128 | 64 (≈ 156 µM) | 2 (≈ 4.86 µM) | –
Fc1ccc(C[Se]C(Cn2cncn2)c2ccc(F)cc2F)cc1 (configuration not stated) | 32 | 0.25 (≈ 0.631 µM) | 2 (≈ 5.05 µM) | > 128 | 64 | 8 (≈ 20.2 µM) | 8 (≈ 20.2 µM) | 32 (≈ 80.8 µM) | 1 (≈ 2.52 µM) | > 128 | 128 | 4 (≈ 10.1 µM) | 0.5 (≈ 1.26 µM) | –
Fc1ccc(C(Cn2cncn2)[Se]Cc2ccc(Cl)cc2Cl)c(F)c1 (configuration not stated) | 64 | 0.06 (≈ 0.134 µM) | 2 (≈ 4.47 µM) | > 128 | > 128 | 128 (≈ 286 µM) | 16 (≈ 35.8 µM) | > 128 | 0.13 (≈ 0.291 µM) | > 128 | > 128 | 64 (≈ 143 µM) | 4 (≈ 8.95 µM) | –
Fc1ccc(C(Cn2cncn2)[Se]Cc2ccccc2)c(F)c1 (configuration not stated) | 32 | 0.06 (≈ 0.159 µM) | 2 (≈ 5.29 µM) | > 128 | 16 | 4 (≈ 10.6 µM) | 8 (≈ 21.1 µM) | 16 (≈ 42.3 µM) | 0.5 (≈ 1.32 µM) | 16 | 128 | 8 (≈ 21.1 µM) | 4 (≈ 10.6 µM) | –
Clc1ccc(C(Cn2cncn2)[Se]Cc2ccccc2Cl)c(Cl)c1 (configuration not stated) | 8 | 0.13 (≈ 0.292 µM) | 4 (≈ 8.98 µM) | > 128 | 32 | 0.06 (≈ 0.135 µM) | 16 (≈ 35.9 µM) | 8 (≈ 18 µM) | 0.03 (≈ 0.0673 µM) | > 128 | > 128 | 16 (≈ 35.9 µM) | 2 (≈ 4.49 µM) | –
Cc1ccc(C[Se]C(Cn2cncn2)c2ccc(Cl)cc2Cl)cc1 (configuration not stated) | > 128 | 2 (≈ 4.7 µM) | 2 (≈ 4.7 µM) | > 128 | > 128 | 64 (≈ 151 µM) | 16 (≈ 37.6 µM) | 64 (≈ 151 µM) | 16 (≈ 37.6 µM) | > 128 | > 128 | 128 (≈ 301 µM) | 32 (≈ 75.3 µM) | –
